The results in this text go back to patent US8629242B2, “Methods of inhibiting calcineurin with ApoE analogs” (Cognosci, Inc., priority 2007, dated 2014).

Where a SMILES comes first, the peptide text is derived from it. [ ]: non-standard residue; d: D form. Aib = CC(C)(N)C(=O)O

Test [1] deals with T1, Calcineurin (Homo sapiens, UniProt Q08209).
T1 construct: purchased BioMol AK-804
Nature of the test: Cell-free calcineurin phosphatase activity assay (BioMol kit). Format: biochemical. Particulars: various concentrations. How it is done: FIG. 14. ApoE analogs bind directly to calcineurin and inhibit its activity. […] (B) Immunoprecipitation of human brain lysate with a biotin-COG 133 conjugate. Lane 1=markers; lane 2=clear bead; lane 3=biotin-COG 133 bead conjugate; and lane 4=10 μg lysate. (C) Immunoprecipitation of different glial cultures with a biotin-COG 133 conjugate. Lane 1=markers; lane 2=astrocyte; lane 3=microglia; and lane 4=oligodendrocyte precursor cells (OPC). Blots in B and C were probed for calcineurin (PP2B).
Calcineurin activity was measured in a cell-free in vitro assay in the presence of various concentrations of COG 133 (SEQ ID NO: 1), COG 112 (SEQ ID NO: 5), COG 68 (SEQ ID NO: 7), COG 125 (Ac-AS(Aib)LRKL(Aib)KR—COOH; SEQ ID NO: 8), or antennapedia (antp), the prefix peptide for COG 112. […] Using a BioMol Calcineurin Phosphatase Activity Kit (Cat. #AK-804), the assay was conducted according to manufacturer's instructions. […] This inhibition of calcineurin activity by ApoE analogs is mediated by a direct interaction of the ApoE analog with the phosphatase.

The subject of test [2] is enriched OPC cultures. Nature of the test: Number of mature oligodendrocytes after differentiation of enriched OPC culture. Particulars: 2 μM COG 133, 1 μM COG 112 or 1 μM COG 68 for four days, then six days differentiation without analog. It is filed as cell-based, rat. As for the experimental part: FIG. 11. ApoE analogs increase the number of mature oligodendrocytes in culture. ApoE analogs (COG 133, COG 112, and COG 68) were added to enriched OPC culture in proliferation media for four days. Cultures were then differentiated in the absence of the ApoE analogs. Cells were labeled with a GST-π antibody to detect mature oligodendrocytes.
Since COG 112 increased the proliferation of OPCs, we next examined whether the ApoE analogs could also increase the number of mature oligodendrocytes. Enriched OPC cultures were prepared as described for the previous experiment. 2 μM COG 133 (SEQ ID NO: 1), 1 μM COG 112 (SEQ ID NO: 5), or 1 μM COG 68 (Ac-[…]-NH2; SEQ ID NO: 7) were added to the enriched OPC cultures in proliferation media for four days. The media was then replaced with differentiation medium without the ApoE analogs for an additional six days. Cells were labeled with a GST-π antibody to detect mature oligodendrocytes.

Test [3] relates to macrophage cell line U937. Nature of the test: Superoxide release in PMA+LPS-treated U937 macrophages. It is filed as cell-based, human. The following applies: 10 μM, IFN-γ-differentiated cells. How it is done:
FIG. 16. ApoE analogs suppress the release of nitric oxide (A) and TNF-α (B) in LPS-treated BV2 microglia cells. Series concentrations of ApoE analogs were added to culture medium together with LPS (10 ng/ml). 24 hours later, culture medium was collected for measurement of NO by Griess assay or TNF-α by ELISA. (C) ApoE analogs inhibit superoxide formation in PMA+LPS-treated human macrophage cell line U937. ApoE analogs (10 μM) were added to the cell medium of human macrophage U937 5 minutes prior to PMA+LPS treatment. The release of superoxide in culture medium was measured by Luminol assay kit (Calbiochem).
To determine the anti-oxidant effect of the different ApoE analogs, the human macrophage cell line U937 was differentiated with IFN-γ (40 U/ml) for 4 days and treated with phorbol-12-myristate-13-acetate (PMA) and LPS with or without ApoE analogs (10 μM). The release of superoxide in the medium was measured by Luminol Superoxide Assay kit (Calbiochem, CA).

Test [4] concerns microglia cell line BV2. Nature of the test: LPS-induced NO and TNF-α release in BV2 microglia. It is filed as cell-based, murine. Particulars: LPS 10 ng/ml, 24 hours. How it is done:
FIG. 16. […] Series concentrations of ApoE analogs were added to culture medium together with LPS (10 ng/ml). 24 hours later, culture medium was collected for measurement of NO by Griess assay or TNF-α by ELISA. […] ApoE analogs (10 μM) were added to the cell medium of human macrophage U937 5 minutes prior to PMA+LPS treatment. The release of superoxide in culture medium was measured by Luminol assay kit (Calbiochem).
The murine microglia cell line BV2 was used as the first screening platform to compare the potency of ApoE analogs in anti-inflammatory activity. In response to LPS, BV2 produces amounts of reactive radical NO and inflammatory cytokines, such as TNF-α and IL-6. We stimulated the cells with LPS (10 ng/ml) in the presence of several concentrations of each of the ApoE analogs. We measured NO in medium by Griess assay and TNF-α by ELISA 24 hours after LPS stimulation of the cells. The IC50 value was calculated for each of the ApoE analogs.

Regarding `CC(=O)N[C@@H](CC(C)C)C(=O)N[C@@H](CCCNC(=N)N)C(=O)N[C@H](C(=O)N[C@@H](CCCNC(=N)N)C(=O)N[C@@H](CC(C)C)C(=O)N[C@@H](C)C(=O)N[C@@H](CO)C(=O)N[C@@H](Cc1c[nH]cn1)C(=O)N[C@@H](CC(C)C)C(=O)N[C@@H](CCCNC(=N)N)C(=O)N[C@@H](CCCCN)C(=O)N[C@@H](CC(C)C)C(=O)N[C@@H](CCCNC(=N)N)C(=O)N[C@@H](CCCCN)C(=O)N[C@@H](CCCNC(=N)N)C(=O)N[C@@H](CC(C)C)C(=O)N[C@@H](CC(C)C)C(N)=O)C(C)C` [COG 133], the “inhibition of calcineurin activity” value in test [1] was “dose-dependent inhibition”. Also, the “number of mature oligodendrocytes (GST-π)” value in test [2] is on record as “significantly increased the number of mature oligodendrocytes”.

`CC(=O)NC(=N)NCCC[C@H](NC(=O)[C@H](CCCCN)NC(=O)[C@H](CCCNC(=N)N)NC(=O)[C@H](CC(C)C)NC(=O)[C@H](CCCCN)NC(=O)[C@H](CCCNC(=N)N)NC(=O)[C@H](CC(C)C)NC(=O)C(C)(C)NC(=O)[C@H](CO)NC(=O)[C@H](C)NC(=O)[C@H](CC(C)C)NC(=O)[C@H](CCCNC(=N)N)NC(=O)[C@@H](NC(=O)[C@H](CCCNC(=N)N)NC(=O)[C@H](CC(C)C)NC(C)=O)C(C)C)C(=O)N[C@@H](CC(C)C)C(=O)N[C@@H](CC(C)C)C(N)=O` [COG 345, acetyl-LRVRLAS-Aib-LRKLRK(acetyl-Arg)LL-amide] (Ac-LRVRLAS[Aib]LRKLRKR(Ac)LL-NH2): the superoxide release entry in test [3] was “significantly inhibited superoxide release”. In addition, the “activity in suppression of microglia activation (NO by Griess assay, TNF-α by ELISA)” value in test [4] is given as “clearly superior to that of COG 133”.

“Ac-RQIKIWFQNRRMKWKKCLRVRLASHLRKLRKRLL-NH2 [COG 112]”: in test [1], the “inhibition of calcineurin activity” value is given as “dose-dependent inhibition”. Moreover, the superoxide release result in test [3] is on record as “significantly inhibited superoxide release”. The “number of mature oligodendrocytes (GST-π)” value in test [2] is listed as “significantly increased the number of mature oligodendrocytes”. For the same compound, the “activity in suppression of microglia activation (NO by Griess assay, TNF-α by ELISA)” value in test [4] is reported as “clearly superior to that of COG 133”.
